Test results as given in ChEMBL document CHEMBL3885881, “DrugMatrix”.

Organism: Rattus norvegicus
Experiment: DrugMatrix - Regimen: Daily Repeat
Format: toxicity, organism-based, Sprague-Dawley
Parameters: regimen Daily Repeat, gender Male, age 6-8 weeks
Conditions: in vivo, po, route oral GAVAGE, vehicle .5 % CMC; for ABSOLUTE BASOPHIL / ABSOLUTE EOSINOPHIL / ABSOLUTE LYMPHOCYTE / ABSOLUTE MONOCYTE / ABSOLUTE SEGMENTED NEUTROPHIL / BASOPHIL / EOSINOPHIL / ERYTHROCYTE COUNT / HEMATOCRIT / HEMOGLOBIN / LEUKOCYTE COUNT / LYMPHOCYTE / MEAN CORPUSCULAR HEMOGLOBIN / MEAN CORPUSCULAR HEMOGLOBIN CONCENTRATION / MEAN CORPUSCULAR VOLUME / MONOCYTE / NEUTROPHIL / NUCLEATED RED BLOOD CELLS / PLATELET COUNT: tissue Blood; for ALANINE AMINOTRANSFERASE / ALBUMIN / ALKALINE PHOSPHATASE / ASPARTATE AMINOTRANSFERASE / BLOOD UREA NITROGEN / CARBON DIOXIDE / CHLORIDE / CHOLESTEROL / CREATINE PHOSPHOKINASE / CREATININE / GLUCOSE / LACTATE DEHYDROGENASE / LIPASE / PHOSPHORUS / POTASSIUM / SODIUM / TOTAL BILIRUBIN / TOTAL PROTEIN / URIC ACID: tissue Plasma
[1] = 60 mg/kg, 72 h, dose level Low, time 3 day
[2] = 60 mg/kg, 120 h, dose level Low, time 5 day
[3] = 435 mg/kg, 72 h, dose level High, time 3 day
[4] = 435 mg/kg, 120 h, dose level High, time 5 day

CCCCCCCCNC(C)C(O)c1ccc(SC(C)C)cc1 (configuration not stated) [SULOCTIDIL]
ABSOLUTE BASOPHIL [1]: 0 CELLS/uL | ABSOLUTE EOSINOPHIL [1]: 0 CELLS/uL | ABSOLUTE LYMPHOCYTE [1]: 12874.67 CELLS/uL | ABSOLUTE MONOCYTE [1]: 326.33 CELLS/uL | ABSOLUTE SEGMENTED NEUTROPHIL [1]: 2365.67 CELLS/uL | BASOPHIL [1]: 0% | EOSINOPHIL [1]: 0% | ERYTHROCYTE COUNT [1]: 5.66 x10E6/uL | HEMATOCRIT [1]: 34.83% | HEMOGLOBIN [1]: 13.2 G/DL | LEUKOCYTE COUNT [1]: 15.57 x10E3/uL | LYMPHOCYTE [1]: 81.33% | MEAN CORPUSCULAR HEMOGLOBIN [1]: 23.33 pg | MEAN CORPUSCULAR HEMOGLOBIN CONCENTRATION [1]: 37.93 G/DL | MEAN CORPUSCULAR VOLUME [1]: 61.57 fL | MONOCYTE [1]: 2.33% | NEUTROPHIL [1]: 16.33% | NUCLEATED RED BLOOD CELLS [1]: 0 /100WBC | PLATELET COUNT [1]: 1204 x10E3/uL | ALANINE AMINOTRANSFERASE [1]: 56.67 u/L | ALBUMIN [1]: 4.23 G/DL | ALKALINE PHOSPHATASE [1]: 425.33 u/L | ASPARTATE AMINOTRANSFERASE [1]: 91.67 u/L | BLOOD UREA NITROGEN [1]: 18 mg/dL | CARBON DIOXIDE [1]: 25 mmol/L | CHLORIDE [1]: 101.33 MEQ/L | CHOLESTEROL [1]: 80 mg/dL | CREATINE PHOSPHOKINASE [1]: 410.67 u/L | CREATININE [1]: 0.23 mg/dL | GLUCOSE [1]: 140.33 mg/dL | LACTATE DEHYDROGENASE [1]: 416.33 u/L | LIPASE [1]: 10.33 u/L | PHOSPHORUS [1]: 14.3 mg/dL | POTASSIUM [1]: 5.93 MEQ/L | SODIUM [1]: 145.47 MEQ/L | TOTAL BILIRUBIN [1]: 0.17 mg/dL | TOTAL PROTEIN [1]: 6.27 G/DL | URIC ACID [1]: 1.4 mg/dL | ABSOLUTE BASOPHIL [2]: 0 CELLS/uL | ABSOLUTE EOSINOPHIL [2]: 0 CELLS/uL | ABSOLUTE LYMPHOCYTE [2]: 10938.33 CELLS/uL | ABSOLUTE MONOCYTE [2]: 387.67 CELLS/uL | ABSOLUTE SEGMENTED NEUTROPHIL [2]: 1740.67 CELLS/uL | BASOPHIL [2]: 0% | EOSINOPHIL [2]: 0% | ERYTHROCYTE COUNT [2]: 5.48 x10E6/uL | HEMATOCRIT [2]: 33.37% | HEMOGLOBIN [2]: 13.03 G/DL | LEUKOCYTE COUNT [2]: 13.07 x10E3/uL | LYMPHOCYTE [2]: 83.67% | MEAN CORPUSCULAR HEMOGLOBIN [2]: 23.83 pg | MEAN CORPUSCULAR HEMOGLOBIN CONCENTRATION [2]: 39.1 G/DL | MEAN CORPUSCULAR VOLUME [2]: 61.07 fL | MONOCYTE [2]: 3% | NEUTROPHIL [2]: 13.33% | NUCLEATED RED BLOOD CELLS [2]: 0 /100WBC | PLATELET COUNT [2]: 1209.67 x10E3/uL | ALANINE AMINOTRANSFERASE [2]: 49.33 u/L | ALBUMIN [2]: 4.03 G/DL | ALKALINE PHOSPHATASE [2]: 405.67 u/L | ASPARTATE AMINOTRANSFERASE [2]: 76 u/L | BLOOD UREA NITROGEN [2]: 16.67 mg/dL | CARBON DIOXIDE [2]: 29.33 mmol/L | CHLORIDE [2]: 98.67 MEQ/L | CHOLESTEROL [2]: 65.67 mg/dL | CREATINE PHOSPHOKINASE [2]: 223 u/L | CREATININE [2]: 0.21 mg/dL | GLUCOSE [2]: 141.33 mg/dL | LACTATE DEHYDROGENASE [2]: 112 u/L | LIPASE [2]: 9.67 u/L | PHOSPHORUS [2]: 13.63 mg/dL | POTASSIUM [2]: 6.46 MEQ/L | SODIUM [2]: 145.77 MEQ/L | TOTAL BILIRUBIN [2]: 0.1 mg/dL | TOTAL PROTEIN [2]: 5.97 G/DL | URIC ACID [2]: 1.43 mg/dL | ABSOLUTE BASOPHIL [3]: 0 CELLS/uL | ABSOLUTE EOSINOPHIL [3]: 0 CELLS/uL | ABSOLUTE LYMPHOCYTE [3]: 12119.33 CELLS/uL | ABSOLUTE MONOCYTE [3]: 277.33 CELLS/uL | ABSOLUTE SEGMENTED NEUTROPHIL [3]: 1536.67 CELLS/uL | BASOPHIL [3]: 0% | EOSINOPHIL [3]: 0% | ERYTHROCYTE COUNT [3]: 5.33 x10E6/uL | HEMATOCRIT [3]: 33.43% | HEMOGLOBIN [3]: 12.9 G/DL | LEUKOCYTE COUNT [3]: 13.93 x10E3/uL | LYMPHOCYTE [3]: 87% | MEAN CORPUSCULAR HEMOGLOBIN [3]: 24.23 pg | MEAN CORPUSCULAR HEMOGLOBIN CONCENTRATION [3]: 38.6 G/DL | MEAN CORPUSCULAR VOLUME [3]: 62.83 fL | MONOCYTE [3]: 2% | NEUTROPHIL [3]: 11% | NUCLEATED RED BLOOD CELLS [3]: 0 /100WBC | PLATELET COUNT [3]: 1170.67 x10E3/uL | ALANINE AMINOTRANSFERASE [3]: 123 u/L | ALBUMIN [3]: 4.1 G/DL | ALKALINE PHOSPHATASE [3]: 384.67 u/L | ASPARTATE AMINOTRANSFERASE [3]: 116 u/L | BLOOD UREA NITROGEN [3]: 16 mg/dL | CARBON DIOXIDE [3]: 24.67 mmol/L | CHLORIDE [3]: 102 MEQ/L | CHOLESTEROL [3]: 71.33 mg/dL | CREATINE PHOSPHOKINASE [3]: 478.67 u/L | CREATININE [3]: 0.2 mg/dL | GLUCOSE [3]: 126.67 mg/dL | LACTATE DEHYDROGENASE [3]: 279.67 u/L | LIPASE [3]: 10.67 u/L | PHOSPHORUS [3]: 11.9 mg/dL | POTASSIUM [3]: 5.78 MEQ/L | SODIUM [3]: 145.13 MEQ/L | TOTAL BILIRUBIN [3]: 0.1 mg/dL | TOTAL PROTEIN [3]: 5.8 G/DL | URIC ACID [3]: 1.2 mg/dL | ABSOLUTE BASOPHIL [4]: 0 CELLS/uL | ABSOLUTE EOSINOPHIL [4]: 49.33 CELLS/uL | ABSOLUTE LYMPHOCYTE [4]: 11875.33 CELLS/uL | ABSOLUTE MONOCYTE [4]: 141.33 CELLS/uL | ABSOLUTE SEGMENTED NEUTROPHIL [4]: 1867.33 CELLS/uL | BASOPHIL [4]: 0% | EOSINOPHIL [4]: 0.33% | ERYTHROCYTE COUNT [4]: 6 x10E6/uL | HEMATOCRIT [4]: 36.07% | HEMOGLOBIN [4]: 13.93 G/DL | LEUKOCYTE COUNT [4]: 13.93 x10E3/uL | LYMPHOCYTE [4]: 85.33% | MEAN CORPUSCULAR HEMOGLOBIN [4]: 23.27 pg | MEAN CORPUSCULAR HEMOGLOBIN CONCENTRATION [4]: 38.67 G/DL | MEAN CORPUSCULAR VOLUME [4]: 60.1 fL | MONOCYTE [4]: 1% | NEUTROPHIL [4]: 13.33% | NUCLEATED RED BLOOD CELLS [4]: 0 /100WBC | PLATELET COUNT [4]: 1140 x10E3/uL | ALANINE AMINOTRANSFERASE [4]: 337 u/L | ALBUMIN [4]: 3.63 G/DL | ALKALINE PHOSPHATASE [4]: 249.33 u/L | ASPARTATE AMINOTRANSFERASE [4]: 188 u/L | BLOOD UREA NITROGEN [4]: 13.67 mg/dL | CARBON DIOXIDE [4]: 25 mmol/L | CHLORIDE [4]: 105 MEQ/L | CHOLESTEROL [4]: 25 mg/dL | CREATINE PHOSPHOKINASE [4]: 1012.33 u/L | CREATININE [4]: 0.12 mg/dL | GLUCOSE [4]: 128.67 mg/dL | LACTATE DEHYDROGENASE [4]: 213 u/L | LIPASE [4]: 8.67 u/L | PHOSPHORUS [4]: 10.37 mg/dL | POTASSIUM [4]: 5.67 MEQ/L | SODIUM [4]: 144.2 MEQ/L | TOTAL BILIRUBIN [4]: 0.1 mg/dL | TOTAL PROTEIN [4]: 5.1 G/DL | URIC ACID [4]: 1.23 mg/dL
